The term IC50 denotes the midpoint of a concentration-inhibition curve.

The text below walks through data of the Kinase Knowledgebase extract (Sharma et al. 2016).

In this assay the target is CDK2 (UniProt P24941). The experiment in a line: Enzyme Assay.
`CN1CCN(c2ccc(Nc3nccc(-c4cnn5ncccc45)n3)cc2Cl)CC1` showed an IC50 below 100 nM.

On to `c1cc(Nc2nccc(-c3cnn4ncccc34)n2)cc(-c2cnco2)c1`, for which the IC50 is below 100 nM.

On to `Cc1cc(Nc2nccc(-c3cnn4ncccc34)n2)ccc1N1CCN(C)CC1`, for which the IC50 is below 100 nM.

In turn, `Clc1ccc(Nc2nccc(-c3cnn4ncccc34)n2)cc1` had an IC50 below 100 nM.

`FC(F)(F)c1cccc(Nc2nccc(-c3cnn4ncccc34)n2)c1`: the IC50 was below 100 nM.

In the case of `Clc1ccccc1-c1ccc2c(-c3ccnc(NC4CC4)n3)cnn2n1`, the IC50 was below 1000 nM.

`N#Cc1cccc(Nc2nccc(-c3cnn4ncccc34)n2)c1`: the IC50 is below 100 nM.

As for `O=C1CCCN1CCCNc1nccc(-c2cnn3ncccc23)n1`, the half-maximal inhibitory concentration (IC50) is below 100 nM.

`O=[N+]([O-])c1cccc(Nc2nccc(-c3cnn4ncccc34)n2)c1` returned a half-inhibitory concentration (IC50) below 100 nM.

`COc1ccc2c(-c3ccnc(NC4CC4)n3)cnn2n1` displayed an IC50 below 1000 nM.

The compound `NS(=O)(=O)c1ccc(Nc2nccc(-c3cnn4ncccc34)n2)cc1` had a 50% inhibitory concentration (IC50) below 100 nM.

`CN(C)c1ccc(Nc2nccc(-c3cnn4nc(N5CCOCC5)ccc34)n2)cc1` showed an IC50 below 1000 nM.
